According to DBAASP:
Converted amounts (≈) assume the structure as drawn. “And” between values parts separate entries of the source, which are not always exact repeats. Identical values can stand only once.

Key:
Assay in all cases: ≥ marks a high value that may be exact or a test limit, other limits are often not marked, values filed in µg/mL are converted to µM
[1] = test system: Staphylococcus aureus ATCC 25923
Streptococcus pyogenes = test system: Streptococcus pyogenes
[2] = test system: Candida albicans ATCC 90112
[3] = test system: Stenotrophomonas maltophilia ATCC 13637
[4] = test system: Micrococcus luteus ATCC 10240
[5] = test system: Escherichia coli ATCC 25922
[6] = test system: Pseudomonas aeruginosa ATCC 27853
[7] = test system: Staphylococcus epidermidis
Proteus mirabilis = test system: Proteus mirabilis
[8] = test system: Bacillus subtilis ATCC 6633
[9] = test system: Enterococcus faecalis 981
Serratia rubidaea X01 = test system: Serratia rubidaea X01
[10] = test system: Staphylococcus carnosus KHS
[11] = test system: Psychrobacter faecalis X29
[12] = test system: Rhodococcus rhodochrous X15
[13] = test system: Bacillus licheniformis X39
[14] = test system: Staphylococcus aureus S908
[15] = test system: Candida albicans ATCC 90028
[16] = test system: Staphylococcus aureus 127/08
[17] = test system: Staphylococcus aureus T4/6
[18] = test system: Klebsiella pneumoniae ATCC 700603
[19] = test system: Acinetobacter baumannii I NM8
[20] = test system: Escherichia coli ATCC 25726
[21] = test system: Staphylococcus aureus 145/08
[22] = test system: Staphylococcus aureus 274/08
[23] = test system: Staphylococcus aureus V4180
[24] = test system: Staphylococcus aureus ΔmprFpRBsyn
[25] = test system: Staphylococcus aureus ΔmprF
Escherichia coli ML-35p = test system: Escherichia coli ML-35p
[26] = test system: Staphylococcus aureus 28841
[27] = test system: Pseudomonas aeruginosa SBI-N
[28] = test system: Enterococcus faecalis ATCC 29212
[29] = test system: Enterococcus faecium 94-132
Escherichia coli BAS 849 = test system: Escherichia coli BAS 849
[30] = test system: Pseudomonas aeruginosa MR2123
[31] = test system: Staphylococcus aureus 30371
[32] = test system: Pseudomonas aeruginosa MR3007
[33] = test system: Listeria monocytogenes EGD
[34] = test system: Enterococcus faecalis CDC 21
[35] = test system: Salmonella enterica subsp. enterica serovar Typhimurium ATCC 14028s
[36] = test system: Salmonella enterica serovar typhimurium MS7953s
Enterococcus faecium = test system: Enterococcus faecium
[37] = test system: Staphylococcus aureus 930918-3
[38] = test system: Candida albicans ATCC 10231
Klebsiella pneumoniae = test system: Klebsiella pneumoniae

CC[C@H](C)[C@H](NC(=O)[C@H](CC(=O)O)NC(=O)[C@@H](N)Cc1ccccc1)C(=O)N[C@@H](CCSC)C(=O)NCC(=O)N[C@@H](CC(C)C)C(=O)N[C@H](C(=O)N[C@@H](CCCCN)C(=O)N[C@@H](CCCCN)C(=O)N[C@H](C(=O)N[C@@H](C)C(=O)NCC(=O)N[C@@H](C)C(=O)N[C@@H](CC(C)C)C(N)=O)C(C)C)[C@@H](C)CC [FDIMGLIKKVAGAL]
MIC [1]: 30 µM (≈ 44.2 µg/mL)
MIC (Streptococcus pyogenes): 30 µM (≈ 44.2 µg/mL)
MIC [2]: 7.5 µM (≈ 11.1 µg/mL)
MIC [3]: 30 µM (≈ 44.2 µg/mL)
MIC [4]: 30 µM (≈ 44.2 µg/mL)
MIC [5]: 30 µM (≈ 44.2 µg/mL)
MIC [6]: > 30 µM
MIC [7]: 30 µM (≈ 44.2 µg/mL)
MIC (Proteus mirabilis): ≥ 60 µM
MIC [8]: 30 µM (≈ 44.2 µg/mL)

CC(C)C[C@H](NC(=O)[C@H](CC(C)C)NC(=O)CNC(=O)[C@H](CCCCN)NC(=O)[C@H](CC(C)C)NC(=O)[C@H](CC(C)C)NC(=O)[C@H](CC(N)=O)NC(=O)CNC(=O)[C@@H](NC(=O)[C@H](Cc1ccccc1)NC(=O)[C@@H]1CCCN1C(=O)[C@H](CC(C)C)NC(=O)[C@@H](N)Cc1ccccc1)C(C)C)C(N)=O [FLPFVGNLLKGLL]
MIC [9]: 19 µM (≈ 27.2 µg/mL)
MIC [1]: 9 µM (≈ 12.9 µg/mL)
MIC (Serratia rubidaea X01): ≥ 75 µM
MIC [10]: 19 µM (≈ 27.2 µg/mL)
MIC [11]: ≥ 75 µM
MIC [12]: 9 µM (≈ 12.9 µg/mL)
MIC [13]: 19 µM (≈ 27.2 µg/mL)

CC(C)C[C@H](NC(=O)CNC(=O)[C@H](CC(C)C)NC(=O)[C@H](CCCCN)NC(=O)[C@H](CC(C)C)NC(=O)[C@H](CC(C)C)NC(=O)[C@@H]1CCCN1C(=O)CNC(=O)[C@H](CC(C)C)NC(=O)[C@H](Cc1ccccc1)NC(=O)CN)C(=O)N[C@@H](CCCCN)C(=O)NCC(=O)N[C@@H](C)C(=O)N[C@@H](C)C(=O)N[C@@H](CCCCN)C(=O)N[C@@H](CC(C)C)C(=O)N[C@@H](CC(C)C)C(=O)N1CCC[C@H]1C(=O)N[C@@H](CCC(N)=O)C(=O)N[C@@H](CC(C)C)C(=O)N[C@@H](CC(C)C)C(=O)N1CCC[C@H]1C(=O)N[C@@H](CO)C(=O)N[C@@H](CCCN=C(N)N)C(=O)N[C@@H](CCC(N)=O)C(=O)N[C@@H](CCC(N)=O)C(=O)O [GFLGPLLKLGLKGAAKLLPQLLPSRQQ]
MIC [1]: 2.5 µM and 6 µM
MIC [14]: 2.5 µM (≈ 7.14 µg/mL)
MIC [15]: 12.5 µM (≈ 35.7 µg/mL)
MIC [16]: 2.5 µM (≈ 7.14 µg/mL)
MIC [17]: 2.5 µM (≈ 7.14 µg/mL)
MIC [18]: 50 µM (≈ 143 µg/mL)
MIC [19]: 6 µM (≈ 17.1 µg/mL)
MIC [6]: 25 µM (≈ 71.4 µg/mL)
MIC [20]: ≥ 50 µM
MIC [21]: 2.5 µM (≈ 7.14 µg/mL)
MIC [22]: 2.5 µM (≈ 7.14 µg/mL)
MIC [23]: 2.5 µM (≈ 7.14 µg/mL)

CC(C)C[C@H](NC(=O)[C@@H](NC(=O)CNC(=O)[C@H](CCCN=C(N)N)NC(=O)[C@@H](NC(=O)[C@H](CCCN=C(N)N)NC(=O)[C@@H](NC(=O)[C@H](Cc1ccc(O)cc1)NC(=O)[C@H](C)NC(=O)[C@H](Cc1ccc(O)cc1)NC(=O)[C@@H](NC(=O)[C@H](CO)NC(=O)[C@H](Cc1c[nH]c2ccccc12)NC(=O)[C@@H](N)CCCN=C(N)N)C(C)C)C(C)C)C(C)C)C(C)C)C(=O)N[C@H](C(=O)N[C@@H](CCCN=C(N)N)C(=O)N[C@@H](Cc1ccc(O)cc1)C(=O)N[C@@H](CCCN=C(N)N)C(=O)N[C@@H](CCCN=C(N)N)C(=O)N[C@@H](CO)C(=O)N[C@@H](Cc1c[nH]c2ccccc12)C(=O)O)C(C)C [RWSVYAYVRVRGVLVRYRRSW]
MIC [24]: 2.93 µM and 5.86 µM
MIC [25]: 2.93 µM (≈ 8 µg/mL)

CC[C@H](C)[C@H](N=C(O)[C@H](CCCCN)N=C(O)CN=C(O)[C@H](CC(C)C)N=C(O)[C@H](Cc1ccccc1)N=C(O)[C@H](CCC(=N)O)N=C(O)[C@H](Cc1ccccc1)N=C(O)[C@@H](N)C(C)C)C(O)=N[C@H](C(O)=N[C@@H](Cc1cnc[nH]1)C(O)=N[C@@H](Cc1cnc[nH]1)C(O)=N[C@H](C(O)=NCC(O)=N[C@@H](CC(=N)O)C(O)=N[C@@H](Cc1ccccc1)C(O)=N[C@H](C(O)=N[C@@H](Cc1cnc[nH]1)C(O)=NCC(O)=N[C@@H](Cc1ccccc1)C(O)=N[C@@H](CO)C(O)=N[C@@H](Cc1cnc[nH]1)C(O)=N[C@H](C(O)=N[C@@H](Cc1ccccc1)C(=N)O)C(C)C)C(C)C)C(C)C)[C@@H](C)CC [VFQFLGKIIHHVGNFVHGFSHVF]
MIC (Escherichia coli ML-35p): 0.562 µM (≈ 1.5 µg/mL)
MIC [26]: 0.712 µM (≈ 1.9 µg/mL)
MIC [27]: 0.375 µM (≈ 1 µg/mL)
MIC [28]: 96 µM (≈ 256 µg/mL)
MIC [29]: 0.075 µM (≈ 0.2 µg/mL)
MIC (Escherichia coli BAS 849): 0.562 µM (≈ 1.5 µg/mL)
MIC [30]: 0.3 µM (≈ 0.8 µg/mL)
MIC [31]: 1.01 µM (≈ 2.7 µg/mL)
MIC [32]: 0.412 µM (≈ 1.1 µg/mL)
MIC [33]: 0.15 µM (≈ 0.4 µg/mL)
MIC [34]: 0.225 µM (≈ 0.6 µg/mL)
MIC [35]: 0.6 µM (≈ 1.6 µg/mL)
MIC [36]: 0.15 µM (≈ 0.4 µg/mL)
MIC (Enterococcus faecium): 0.113 µM (≈ 0.3 µg/mL)
MIC [37]: 0.637 µM (≈ 1.7 µg/mL)
MIC [5]: 96 µM (≈ 256 µg/mL)
MIC [38]: 48 µM and > 24 µM
MIC (Klebsiella pneumoniae): 0.45 µM (≈ 1.2 µg/mL)
